Patent US8623859B2, “Bradykinin B1 antagonists” (Evotec AG, priority 2008, dated 2014)
Structures can show the parent of a compound that is named as a salt.

Target: T1, human B1 (Homo sapiens, UniProt P46663)
T1 construct: host or cells: CHO-K1
T1 sequence (P46663 1-353): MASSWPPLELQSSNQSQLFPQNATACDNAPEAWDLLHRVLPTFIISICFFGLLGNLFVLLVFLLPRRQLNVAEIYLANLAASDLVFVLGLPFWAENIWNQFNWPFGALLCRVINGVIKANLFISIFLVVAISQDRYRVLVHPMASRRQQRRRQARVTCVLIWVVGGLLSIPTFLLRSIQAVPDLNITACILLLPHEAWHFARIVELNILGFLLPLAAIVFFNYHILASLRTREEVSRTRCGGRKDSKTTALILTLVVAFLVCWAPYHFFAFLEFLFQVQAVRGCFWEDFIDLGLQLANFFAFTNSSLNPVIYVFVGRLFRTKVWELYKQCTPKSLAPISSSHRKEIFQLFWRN
Experiment: Calcium flux assay for Bradykinin B1 antagonist, CHO-K1 cell line expressing human B1
Assay type: cell-based
Settings: CHO-K1 cells expressing human B1, agonist Lys-(Des-Arg)-Bradykinin, read-out: Potency (IC50 value against human B1)
In short: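 CHO-K1 cells expressing human B1, loaded with 5 μM Fluo-4AM (2 h, 37° C) in HEPES buffer pH 7.4 with probenecid and 0.1% BSA, were preincubated 30 min at 25° C with compound (8 concentrations, triplicate, 1% DMSO) before B1 agonist addition. Ca2+ fluorescence monitored at 538 nm; background-normalized integrated values plotted against log antagonist concentration.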

## O=C(c1coc(CN(C2CC2)S(=O)(=O)c2c(Cl)cc(Br)cc2Cl)c1)N1CCCC(c2ccc(CN3CCCC3)cc2)C1 (stereo not shown) [Ex 125, 4-Bromo-2,6-dichloro-N-cyclopropyl-N-{[4-({3-[4-(pyrrolidin-1-ylmethyl)phenyl]piperidin-1-yl}carbonyl)furan-2-yl]methyl}benzenesulfonamide trifluoroacetate]
  IC50: 100 to 1000 nM

## CN(Cc1ccc(C2=NCCN2)cc1)C(=O)c1coc(CN(C)S(=O)(=O)c2c(Cl)cc(Br)cc2Cl)c1 [Ex 19, 5-({[(4-bromo-2,6-dichlorophenyl)sulfonyl](methyl)amino}methyl)-N-[4-(4,5-dihydro-1H-imidazol-2-yl)benzyl]-N-methylfuran-3-carboxamide]
  IC50: < 10 nM

## COc1cc(C)c(S(=O)(=O)N(Cc2nc(C(=O)N3CCC(O)(/C=C/c4ccncc4)CC3)co2)C2CC2)c(C)c1 [Ex 241, N-Cyclopropyl-N-{[4-({4-hydroxy-4-[(E)-2-pyridin-4-ylethenyl]piperidin-1-yl}carbonyl)-1,3-oxazol-2-yl]methyl}-4-methoxy-2,6-dimethylbenzenesulfonamide trifluoroacetate]
  IC50: 10 to 100 nM

## COc1cc(C)c(S(=O)(=O)N(C)Cc2cc(C(=O)NCCc3ccc(C4=NCCN4)cc3)co2)c(C)c1 [Ex 4, N-{2-[4-(4,5-dihydro-1H-imidazol-2-yl)phenyl]ethyl}-5-({[(4-methoxy-2,6-dimethylphenyl)sulfonyl](methyl)amino}methyl)furan-3-carboxamide]
  IC50: < 10 nM

## COc1cc(C)c(S(=O)(=O)N(Cc2nc(C(=O)N3CCN(Cc4ccnc(C)c4)CC3)co2)C2CC2)c(C)c1 [Ex 252, N-Cyclopropyl-4-methoxy-2,6-dimethyl-N-{[4-({4-[(2-methylpyridin-4-yl)methyl]piperazin-1-yl}carbonyl)-1,3-oxazol-2-yl]methyl}benzenesulfonamide]
  IC50: < 10 nM

## COc1cc(C)c(S(=O)(=O)N(C)Cc2nc(C(=O)NCc3ccc(C4=NCCN4)cc3)co2)c(C)c1 [Ex 68, N-[4-(4,5-dihydro-1H-imidazol-2-yl)benzyl]-2-({[(4-methoxy-2,6-dimethylphenyl)sulfonyl](methyl)amino}methyl)-1,3-oxazole-4-carboxamide]
  IC50: 100 to 1000 nM

## COc1cc(C)c(S(=O)(=O)N(Cc2nnc(C(=O)N3CCN(CC4CCN(C)CC4)CC3)o2)C2CC2)c(C)c1 [Ex 272, N-Cyclopropyl-4-methoxy-2,6-dimethyl-N-{[5-({4-[(1-methylpiperidin-4-yl)methyl]piperazin-1-yl}carbonyl)-1,3,4-oxadiazol-2-yl]methyl}benzenesulfonamide]
  IC50: < 10 nM

## COc1cc(C)c(S(=O)(=O)N(C)Cc2nc(C(=O)N(C)Cc3ccc(CN4CCCC(OC)C4)cc3)co2)c(C)c1 (stereo not shown) [Ex 168, 2-({[(4-Methoxy-2,6-dimethylphenyl)sulfonyl](methyl)amino}methyl)-N-{4-[(3-methoxypiperidin-1-yl)methyl]benzyl}-N-methyl-1,3-oxazole-4-carboxamide]
  IC50: 10 to 100 nM

## COc1cc(C)c(S(=O)(=O)N(Cc2cc(C(=O)N3CCN(CC(=O)Nc4cccnc4)CC3)co2)C2CC2)c(C)c1 [Ex 117, 2-(4-{[5-({Cyclopropyl[(4-methoxy-2,6-dimethylphenyl)sulfonyl]amino}methyl)furan-3-yl]carbonyl}piperazin-1-yl)-N-pyridin-3-ylacetamide trifluoroacetate]
  IC50: 100 to 1000 nM

## COc1cc(C)c(S(=O)(=O)N(C)Cc2nnc(C(=O)N3CCN(Cc4cnc5ccccc5c4)CC3)o2)c(C)c1 [Ex 296, 4-Methoxy-N,2,6-trimethyl-N-[(5-{[4-(quinolin-3-ylmethyl)piperazin-1-yl]carbonyl}-1,3,4-oxadiazol-2-yl)methyl]benzenesulfonamide]
  IC50: < 10 nM

## COc1cc(C)c(S(=O)(=O)N(C)Cc2noc(C(=O)N3CCN(CCCN(C)C)CC3)n2)c(C)c1 [Ex 309, N-{[5-({4-[3-(Dimethylamino)propyl]piperazin-1-yl}carbonyl)-1,2,4-oxadiazol-3-yl]methyl}-4-methoxy-N,2,6-trimethylbenzenesulfonamide]
  IC50: 10 to 100 nM

## COc1cc(C)c(S(=O)(=O)N(C)Cc2cc(C(=O)N(C)Cc3cc(F)cc(CN4CCCC4)c3)co2)c(C)c1 [Ex 158, N-[3-Fluoro-5-(pyrrolidin-1-ylmethyl)benzyl]-5-({[(4-methoxy-2,6-dimethylphenyl)sulfonyl](methyl)amino}methyl)-N-methylfuran-3-carboxamide trifluoroacetate]
  IC50: 10 to 100 nM

## COc1cc(C)c(S(=O)(=O)N(C)Cc2nnc(C(=O)N3CCN(CC4CCN(CC(C)(C)O)CC4)CC3)o2)c(C)c1 [Ex 266, N-({5-[(4-{[1-(2-Hydroxy-2-methylpropyl)piperidin-4-yl]methyl}piperazin-1-yl)carbonyl]-1,3,4-oxadiazol-2-yl}methyl)-4-methoxy-N,2,6-trimethylbenzenesulfonamide]
  IC50: 100 to 1000 nM

## COc1cc(C)c(S(=O)(=O)N(Cc2nc(C(=O)N3CCC(OC4CCCN(C)C4)CC3)co2)C2CC2)c(C)c1 (stereo not shown) [Ex 248, N-Cyclopropyl-4-methoxy-2,6-dimethyl-N-{[4-({4-[(1-methylpiperidin-3-yl)oxy]piperidin-1-yl}carbonyl)-1,3-oxazol-2-yl]methyl}benzenesulfonamide trifluoroacetate]
  IC50: 10 to 100 nM

## COc1cc(C)c(S(=O)(=O)N(C)Cc2noc(C(=O)N(C)CCc3ccc(C4=NCCN4)cc3)n2)c(C)c1 [Ex 301, N-{2-[4-(4,5-Dihydro-1H-imidazol-2-yl)phenyl]ethyl}-3-({[(4-methoxy-2,6-dimethylphenyl)sulfonyl](methyl)amino}methyl)-N-methyl-1,2,4-oxadiazole-5-carboxamide trifluoroacetamide]
  IC50: < 10 nM

## Cc1cc(S(=O)(=O)N(C)Cc2cc(C(=O)N(C)CCc3ccc(C4=NCCN4)cc3)co2)c(C)cc1Cl [Ex 28, 5-({[(4-chloro-2,5-dimethylphenyl)sulfonyl](methyl)amino}methyl)-N-{2-[4-(4,5-dihydro-1H-imidazol-2-yl)phenyl]ethyl}-N-methylfuran-3-carboxamide]
  IC50: 100 to 1000 nM

## COc1cc(C)c(S(=O)(=O)N(Cc2cc(C(=O)N3CCN(Cc4cccnc4)CC3)co2)C2CC2)c(C)c1 [Ex 111, N-Cyclopropyl-4-methoxy-2,6-dimethyl-N-[(4-{[4-(pyridin-3-ylmethyl)piperazin-1-yl]carbonyl}furan-2-yl)methyl]benzenesulfonamide trifluoroacetate]
  IC50: 100 to 1000 nM

## COc1cc(C)c(S(=O)(=O)N(C)Cc2noc(C(=O)N3CCN(CC4CCN(C)CC4)CC3)n2)c(C)c1 [Ex 305, 4-Methoxy-N,2,6-trimethyl-N-{[5-({4-[(1-methylpiperidin-4-yl)methyl]piperazin-1-yl}carbonyl)-1,2,4-oxadiazol-3-yl]methyl}benzenesulfonamide trifluoroacetate]
  IC50: < 10 nM

## COc1cc(C)c(S(=O)(=O)N(Cc2nnc(C(=O)N3CCN(CCCN4CCCC4)CC3)o2)C2CC2)c(C)c1 [Ex 273, N-Cyclopropyl-4-methoxy-2,6-dimethyl-N-[(5-{[4-(3-pyrrolidin-1-ylpropyl)piperazin-1-yl]carbonyl}-1,3,4-oxadiazol-2-yl)methyl]benzenesulfonamide]
  IC50: < 10 nM

## COc1cc(C)c(S(=O)(=O)N(Cc2cc(C(=O)N(C)Cc3ccc(CN4CCC(OC)CC4)cc3)co2)C2CC2)c(C)c1 [Ex 143, 5-({Cyclopropyl[(4-methoxy-2,6-dimethylphenyl)sulfonyl]amino}methyl)-N-{4-[(4-methoxypiperidin-1-yl)methyl]benzyl}-N-methylfuran-3-carboxamide]
  IC50: 10 to 100 nM

## COc1cc(C)c(S(=O)(=O)N(C)Cc2cc(C(=O)N3CCN(CCc4ccncc4)CC3)co2)c(C)c1 [Ex 33, 4-methoxy-N,2,6-trimethyl-N-[(4-{[4-(2-pyridin-4-ylethyl)piperazin-1-yl]carbonyl}furan-2-yl)methyl]benzenesulfonamide]
  IC50: 100 to 1000 nM

## COc1cc(C)c(S(=O)(=O)N(C)Cc2nnc(C(=O)N3CCC(CCN4CCCC4)CC3)o2)c(C)c1 [Ex 280, 4-Methoxy-N,2,6-trimethyl-N-[(5-{[4-(2-pyrrolidin-1-ylethyl)piperidin-1-yl]carbonyl}-1,3,4-oxadiazol-2-yl)methyl]benzenesulfonamide]
  IC50: 10 to 100 nM

## COc1cc(C)c(S(=O)(=O)N(Cc2noc(C(=O)N3CCN(CC4CCN(C)CC4)CC3)n2)C2CC2)c(C)c1 [Ex 314, N-Cyclopropyl-4-methoxy-2,6-dimethyl-N-{[5-({4-[(1-methylpiperidin-4-yl)methyl]piperazin-1-yl}carbonyl)-1,2,4-oxadiazol-3-yl]methyl}benzenesulfonamide]
  IC50: < 10 nM

## COc1cc(C)c(S(=O)(=O)N(Cc2nc(C(=O)N3CCN(c4ccncc4)CC3)co2)C2CC2)c(C)c1 [Ex 161, N-Cyclopropyl-4-methoxy-2,6-dimethyl-N-({4-[(4-pyridin-4-ylpiperazin-1-yl)carbonyl]-1,3-oxazol-2-yl}methyl)benzenesulfonamide trifluoroacetate]
  IC50: 100 to 1000 nM

## COc1cc(C)c(S(=O)(=O)N(C)Cc2nnc(C(=O)N(C)Cc3ccc4c(c3)CN(C)C4)o2)c(C)c1 [Ex 288, 5-({[(4-Methoxy-2,6-dimethylphenyl)sulfonyl](methyl)amino}methyl)-N-methyl-N-[(2-methyl-2,3-dihydro-1H-isoindol-5-yl)methyl]-1,3,4-oxadiazole-2-carboxamide]
  IC50: 100 to 1000 nM
